# Like-named read-outs stand apart in the source and are kept apart here.
# Experiments:
# σ1 receptors [1] = molecular target: T1, σ1 receptors (Mus musculus, UniProt O55242); format: in vivo, CD-1 mice; conditions: 2.5 μCi i.v., 60 min; non-specific defined by BD1063
# [2] = ref Lever et al., 2012, 2014a, 2015; cited from earlier work
# σ1 receptors [3] = molecular target: T1, σ1 receptors; experiment: In vitro σ1 receptor binding, [^3H]; parameters: species or system CD-1 mouse; conditions: from Table II
# σ1 receptors [4] = molecular target: T1, σ1 receptors; format: in vivo, CD-1 mice; conditions: saline control, 60 min
# striatal DAT = conditions: Swiss Webster strain; ref Desai and colleagues (2005); cited from earlier work
# [5] = ref Fowler et al., 2007; cited from earlier work
# mice = conditions: cited from earlier work
# T1 sequence (O55242 whole entry): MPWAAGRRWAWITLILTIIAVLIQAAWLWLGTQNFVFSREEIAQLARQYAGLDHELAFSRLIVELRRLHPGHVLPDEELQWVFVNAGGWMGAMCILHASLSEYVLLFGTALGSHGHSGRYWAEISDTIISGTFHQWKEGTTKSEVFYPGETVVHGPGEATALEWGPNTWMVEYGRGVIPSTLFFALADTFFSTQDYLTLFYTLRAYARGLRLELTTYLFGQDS
compound,measurement,setting,value
"COc1ccc(CCN2CCN(C/C=C/[125I])CC2)cc1OC [[^125I]E-IA-DM-PE-PIPZE, [^125I]E-N-1-(3′-iodoallyl)-N′-4-(3″,4″-dimethoxyphenethyl)-piperazine]","Control specific binding to σ1 receptors, brain",σ1 receptors [1],83%
same,"Control specific binding to σ1 receptors, heart",σ1 receptors [1],53%
same,"Control specific binding to σ1 receptors, lung",σ1 receptors [1],66%
same,"Control specific binding to σ1 receptors, spleen",σ1 receptors [1],71%
same,Metabolic stability,[2],excellent metabolic stability
same,Selectivity for binding to σ1 over σ2 receptors,σ1 receptors [3],200 fold
same,"Specific Binding [^125I]E-IA-DM-PE-PIPZE, Control",σ1 receptors [4]; Caudate-putamen,1.96 ± 0.07 fmol/mg tissue
same,"Specific Binding [^125I]E-IA-DM-PE-PIPZE, Control","σ1 receptors [4]; Cortex, Cingulate",2.69 ± 0.20 fmol/mg tissue
same,"Specific Binding [^125I]E-IA-DM-PE-PIPZE, Control","σ1 receptors [4]; Cortex, Entorhinal",2.52 ± 0.09 fmol/mg tissue
same,"Specific Binding [^125I]E-IA-DM-PE-PIPZE, Control","σ1 receptors [4]; Cortex, Frontal",2.99 ± 0.19 fmol/mg tissue
same,"Specific Binding [^125I]E-IA-DM-PE-PIPZE, Control","σ1 receptors [4]; Cortex, Parietal",3.12 ± 0.14 fmol/mg tissue
same,"Specific Binding [^125I]E-IA-DM-PE-PIPZE, Control","σ1 receptors [4]; Cortex, Temporal",2.93 ± 0.16 fmol/mg tissue
same,"Specific Binding [^125I]E-IA-DM-PE-PIPZE, Control","σ1 receptors [4]; Diencephalon, Thalamic nuclei",2.94 ± 0.10 fmol/mg tissue
same,"Specific Binding [^125I]E-IA-DM-PE-PIPZE, Control","σ1 receptors [4]; Diencephalon, Thalamus",2.57 ± 0.13 fmol/mg tissue
same,"Specific Binding [^125I]E-IA-DM-PE-PIPZE, Control","σ1 receptors [4]; Hippocampus, CA1 pyramidal",2.25 ± 0.12 fmol/mg tissue
same,"Specific Binding [^125I]E-IA-DM-PE-PIPZE, Control","σ1 receptors [4]; Hippocampus, CA2 pyramidal",2.87 ± 0.13 fmol/mg tissue
same,"Specific Binding [^125I]E-IA-DM-PE-PIPZE, Control","σ1 receptors [4]; Hippocampus, CA3 pyramidal",3.34 ± 0.10 fmol/mg tissue
same,"Specific Binding [^125I]E-IA-DM-PE-PIPZE, Control","σ1 receptors [4]; Hippocampus, Dentate Gyrus",3.27 ± 0.08 fmol/mg tissue
same,"Specific Binding [^125I]E-IA-DM-PE-PIPZE, Control","σ1 receptors [4]; Hippocampus, Nonpyramidal",1.84 ± 0.08 fmol/mg tissue
same,"Specific Binding [^125I]E-IA-DM-PE-PIPZE, Control","σ1 receptors [4]; Mesencephalon, Inferior Colliculi",3.50 ± 0.20 fmol/mg tissue
same,"Specific Binding [^125I]E-IA-DM-PE-PIPZE, Control","σ1 receptors [4]; Mesencephalon, Periaqueductal Gray",4.07 ± 0.13 fmol/mg tissue
same,"Specific Binding [^125I]E-IA-DM-PE-PIPZE, Control","σ1 receptors [4]; Mesencephalon, Superior Colliculi",3.50 ± 0.14 fmol/mg tissue
same,"Specific Binding [^125I]E-IA-DM-PE-PIPZE, Control","σ1 receptors [4]; Metencephalon, Cerebellum (whole)",3.18 ± 0.08 fmol/mg tissue
same,"Specific Binding [^125I]E-IA-DM-PE-PIPZE, Control","σ1 receptors [4]; Metencephalon, Granular layer",4.13 ± 0.20 fmol/mg tissue
same,"Specific Binding [^125I]E-IA-DM-PE-PIPZE, Control","σ1 receptors [4]; Metencephalon, Molecular layer",2.38 ± 0.08 fmol/mg tissue
same,"Specific Binding [^125I]E-IA-DM-PE-PIPZE, Control","σ1 receptors [4]; White Matter, Corpus callosum",1.99 ± 0.06 fmol/mg tissue
(−)-Cocaine hydrochloride,ED50 for displacement of striatal binding,striatal DAT,38 µmol/kg
same,Log D7.4,[5],1.31
same,ED50 for maximum stimulatory effects on locomotor activity,"mice; CD-1 mice, 3 h period, ref Thomsen and Caine (2011)",18.2 mg/kg
same,ED50 for maximum stimulatory effects on locomotor activity,"mice; CD-1 mice, first hour, ref Carroll et al. (2004)",10 mg/kg
same,ED50 for maximum stimulatory effects on locomotor activity,"mice; Swiss Webster mice, 3 h period, ref Thomsen and Caine (2011)",9.7 mg/kg
